Experimental data: patent US12138240B2, “Treatment of cardiac dysfunction” (priority 2017, dated 2024)
“Also recorded” adds a separate entry of the source. Read-outs that look alike come from different tables or passages of the source.

Tests used:
[1] = phase I single ascending dose study, plasma concentrations of ANAVEX 2-73 and metabolite ANAVEX 19-144; assay type: in vivo, human; conditions: for plasma concentration of the labelled analyte: 1 mg ANAVEX 2-73 oral dose; for concentration at 24 h / Cmax: human, plasma; for concentration at 24 h: one subject, 40 mg ANAVEX 2-73 oral, 24 hr time point, read-out: plasma concentration of the labelled analyte; for Cmax: male
Experimental: (§1) Seventeen subjects contributed ECG data to the analysis dataset. The study was randomized single dose escalating phase I first-in-human study designed to investigate the safety and tolerability, and pharmacokinetics of ascending oral doses of ANAVEX 2-73 in male healthy subjects. It was double-blind and placebo-controlled within each dosage step—a two cohort study with alternating single dose escalation performed in male healthy subjects. Subjects were administered 10, 30, 40, 50, or 60 mg of ANAVEX 2-73 orally with a 4-week washout between doses. Sampling for drug and ECG was from predose to 48 hr. Note that Placebo-adjusted (delta-delta) change in QTcF is represented as ΔΔQTcF.
Blood samples for ANAVEX 2-73 and metabolite ANAVEX 19-144 plasma concentration determination were drawn on Day 1 at time zero, T0, (before drug administration), T+0.25 h (15 min), T+0.5 h (30 min), T+1 h, T+1.5 h, T+2 h, T+3 h, T+3.5 h, T+4 h, T+6 h, T+8 h and T+12 h, on Day 2 at T+24 h and T+36 h, and on Day 3 at T+48 h.
The PK variables employed in the analysis were the patient-, regimen- and time-specific observed plasma concentration of ANAVEX 2-73 and ANAVEX 19-144.
The dataset comprised observed ANAVEX 2-73 and ANAVEX 19-144 plasma concentrations that were direct matches in time with QT interval measurements. The analysis variable of interest was the QT interval duration corrected for RR interval duration according to Fridericia's formula (i.e., QTcF), HR, and change from baseline QT interval duration corrected for RR interval duration according to Fridericia's formula (ΔQTcF or dQTcF). Baseline is defined as the mean of any and all values immediately obtained prior to ANAVEX 2-73 administration.

male healthy subjects [2] = system: male healthy subjects; parameters: species or system human; conditions: in vivo
Experimental: as §1
Subjects provided time-matched exposure-ECG data for analysis. For the exposure-QTc analysis, data obtained after the administration of doses greater than 1 mg were used. […] However, ECG data from the administration of the 1 mg dose were included in the categorical and outlier analysis.
(§2) Data analysis proceeded from data structure analysis in S-PLUS to linear/nonlinear mixed effects modeling in NONMEM to develop the exposure-QTc relationship for ANAVEX 2-73 and its active metabolite ANAVEX 19-144. The correction method used for QT interval was the Fridericia's correction. The bootstrap was used to determine the reliability/stability of the exposure-QTc models developed. This was necessary to determine if the modeling results obtained with data from the 17 subjects would be applicable to the population at large, given the sample size. Exposure-heart rate and exposure-change from baseline QTc, and exposure-placebo corrected QTc relationship models were developed for the elucidation of any exposure-QTc relationship.
In addition, categorical summaries of the ECG data were generated using the ICH E14 guidance-defined categories of QTc interval duration as well as change from baseline.
A protocol presented herein was a single ascending dose (SAD) phase I first-in-human study designed to investigate the safety and tolerability, and pharmacokinetics of ascending oral doses of ANAVEX 2-73 in male healthy subjects. The study was a randomized, double-blind, and placebo-controlled within each dosage step. It was a two cohort study with alternating single dose escalation performed in male healthy subjects. The subjects were divided into two cohorts of 8 subjects each—Cohort A (n=8), and Cohort B (n=8). However, 17 evaluable subjects were studied in a 8:9 ratio in cohorts A and B, respectively. The study comprised repeated treatment periods with at least 4 weeks of intermediary washout periods.
Per study protocol, triplicate 12-lead ECGs safety recordings were obtained at the following times: Day 1 at T0/pre-dose (3 baseline ECGs), T+0.25 h (15 min), T+0.5 h (30 min), T+1 h, T+2 h, T+4 h, T+8 h and T+12 h, on Day 2 at T+24 h, T+36 h, and on Day 3 at T+48 h. ECGs were recorded at each PK sampling time (i.e., 0.25, 0.5, 1, 2, 3, 4, 6, 8, 24, 36, and 48 hours after initiation of treatment). Thus, ECG recordings were time-matched with PK sampling.
ECG metrics evaluated included the heart rate (HR), the duration of QT interval, and the heart rate-corrected QT interval according to Fridericia's formula (QTcF). Change of QTcF from baseline (dQTcF), and placebo corrected QTcF (ΔΔQTcF) were generated from the data and used for the analysis.
Baseline ECG was defined as pre-dose baseline on each dosing occasion. Given the four weeks washout between dosing, the pre-dose baseline ECG was used as the baseline ECG for the particular dose/dosing occasion. A change from baseline variable for QTc interval (ΔQTcF) was calculated using pre-dose baseline.
ΔΔQTcF data was a single dose ascending study. As such not all subjects were administered placebo in each of the study periods. Only nine subjects were administered placebo in the course of the study. Consequently, it was not possible to make subject specific placebo correction. […]

male healthy subjects [3] = test: linear exposure-heart rate model (NONMEM); parameters: species or system human
Text: as §2
Concentration-QTc modeling was performed with the software NONMEM v7.3 (Icon Development Solutions, Ellicott City, MD) and graphical analysis, diagnostics plots, and supporting analyses using S Plus v8.2 (TIBCO Software, Boston, MA) and the R package.
Further modeling characterizes the exposure-heart rate relationship. […] for the model were ANAVEX 2-73 and ANAVEX 19-144 concentrations, and time. The baseline heart rate was also estimated. The best model developed to explain the exposure-heart rate relationship included all three variables. Again, ANAVEX 2-73 concentration by itself was not initially biologically QT active, but became active as metabolized to A19-144 in the model. At about 4 to 8 hours post administration A19-144 peaks and surpasses A2-73 at about 8 hours post administration. […] The metabolism of A2-73 to A19-144 modifies this effect. […] It is important to note the upward and negative inflexions in the parent compound and the active metabolite in the final model, respectively, are not indicative of model misspecification but are due to the sensitivity of smoothing loess regression (red line in FIG. 17) to outlying observations in the y-axis. The final model is given below: HRij=56.5−0.106*Parent+0.369*Metabolite+0.153*Time where HRij is subject specific heart rate, Parent refers to ANAVEX 2-73, and Metabolite is for ANAVEX 19-144.
Observed and unlikely to be observed concentrations of the parent drug and metabolite are used to predict heart rate, given the parameter estimates obtained with the exposure-heart rate model developed. […] Thus, the heart rate upon treatment with ANAVEX 2-73 is predicted to be below 75 beats/min.

SMILES	plasma concentration of the labelled analyte ([1]; hydrochloride)	ANAVEX 19-144 Concentration, observed Cmax from the QTc analysis dataset ([1]; footnote a, after oral ANAVEX 2-73, hydrochloride)	concentration at 24 h [1] [ng/mL]	Cmax ([1]; footnote a, after oral ANAVEX 2-73, read-out: ANAVEX 19-144 Concentration, observed Cmax from the QTc analysis dataset) [ng/mL]	anti-arrhythmic activity (male healthy subjects [2])	effect on dQTcF (exposure-dQTcF characterization) (male healthy subjects [2])	graphical relationship of paired concentrations with QTcF measurements (male healthy subjects [2])	relationship with ΔΔQTcF (placebo-adjusted change in QTcF) (male healthy subjects [2])	Slope on metabolite, exposure-heart rate model estimate (male healthy subjects [3]) [beats/min/ng/mL]	initial effects on heart rate (male healthy subjects [3])	plasma concentration of the labelled analyte [1]	Cmax ([1]; oral, footnote a, read-out: ANAVEX 2-73 Concentration, observed Cmax from the QTc analysis dataset) [ng/mL]	QT interval prolongation (male healthy subjects [2])	dQTcF (change in QTcF from baseline), any subject (male healthy subjects [2]; male, human) [ms]	Slope on parent, exposure-heart rate model estimate (male healthy subjects [3]) [beats/min/ng/mL]
CNCC1CCOC1(c1ccccc1)c1ccccc1.Cl (centres unmarked) [ANAVEX 19-144, 1-(2,2-diphenyltetrahydrofuran-3-yl)-N-methylmethanamine hydrochloride]	below the limit of detection; also recorded: not quantifiable	23.96 ^a ng/mL	3.33	24	anti-arrhythmic	did not show any effect	slight minimal upward trend from baseline followed by a slight negative trend	no relationship	0.369	opposite initial effects on heart rate					
CN(C)CC1CCOC1(c1ccccc1)c1ccccc1.Cl (centres unmarked) [ANAVEX 2-73, 1-(2,2-diphenyltetrahydrofuran-3-yl)-N,N-dimethylmethanamine hydrochloride]			2.23			did not show any effect	minimal positive trend	no relationship		opposite initial effects on heart rate	not quantifiable at most of the sampling times beyond two to four hours after dosing	46.2	does not prolong QT interval	≤ 30	−0.106
